According to patent publication US10227349B2, “Pyrazolo[1,5-a]pyrimidine compound” (Eisai R&D Management Co., Ltd., priority 2016, dated 2019):

Columns and labels:
PAR2 [1] = target: T1, PAR2 (Homo sapiens, UniProt P55085); test: Intracellular calcium concentration measurement (trypsin-induced calcium elevation, FDSS6000); format: cell-based; conditions: HEK293 cells, trypsin 5 U/mL as agonist, test compound added 30 min before measurement; read-out: Inhibitory activity on intracellular calcium elevation (IC50 (nM))
T1 construct: Human embryonic kidney cell line HEK293 cells cultured using DMEM culture medium; endogenous in cells; host or cells: HEK293
T1 sequence (P55085 26-397): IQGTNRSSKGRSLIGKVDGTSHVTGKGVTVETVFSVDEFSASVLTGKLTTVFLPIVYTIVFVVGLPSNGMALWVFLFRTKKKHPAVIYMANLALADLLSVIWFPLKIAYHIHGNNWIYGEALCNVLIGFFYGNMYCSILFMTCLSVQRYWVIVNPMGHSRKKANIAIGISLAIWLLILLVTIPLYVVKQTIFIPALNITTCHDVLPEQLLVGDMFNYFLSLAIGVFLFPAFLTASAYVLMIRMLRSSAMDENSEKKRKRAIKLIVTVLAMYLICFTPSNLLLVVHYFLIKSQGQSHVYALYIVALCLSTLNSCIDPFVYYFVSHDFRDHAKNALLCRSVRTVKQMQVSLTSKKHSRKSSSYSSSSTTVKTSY
Text: In the present specification, examples of the measurement method for the PAR2 inhibitory activity include measurement method for a concentration elevation of intracellular calcium; measurement method for a production increase of intracellular inositol trisphosphate; measurement method for an increase in intracellular protein phosphorylation by protein kinase C and MAP kinase; and measurement method for a production amount or a release amount of inflammation-related physiologically active substances such as cytokine, chemokine, prostaglandin and nitric monoxide. Examples of the measurement method for an elevation of intracellular calcium concentration include a method wherein a calcium-binding fluorescent probe is allowed to be incorporated in advance into a cultured cell line or an animal-derived isolated cell having PAR2, or a cell in which PAR2 is artificially expressed, a protease having the PAR2 activity function such as trypsin or a PAR2 agonist (synthetic peptides such as SLIGKV-NH2 (SEQ ID NO: 1) and SLIGRL-NH2 (SEQ ID NO: 2) is added to activate PAR2 whereby fluctuating intracellular calcium concentrations are detected as changes in the fluorescent signal. Alternatively, it is also possible to measure an intracellular calcium concentration by determining the quantity of a fluorescence intensity produced in proportion to the calcium concentration using a calcium-binding luminescent protein overexpressing cell line such as Aequorin. Specifically, examples include the methods described in Test Examples of the present specification.
Human embryonic kidney cell line HEK293 cells cultured using DMEM culture medium (Invitrogen) with 3% fetal bovine serum (3% FBS)-added was prepared to have a concentration of 2×10^5 cells/mL, and plated in a type I collagen-coated 384-well black plate (clear bottom) (Greiner) so as to be 25 μL/well and cultured in a CO2 incubator overnight. FLIPR Calcium Assay Kit (Molecular Devices) prepared with Hanks-20 mM Hepes buffer (pH 7.4) was added to the cells so as to be 25 μL/well and cultured in the CO2 incubator for 1 hour. Trypsin (SIGMA-ALDRICH, catalog number: T8816, Enzyme Commission Number 3.4.21.4) prepared so as to be 5 U/mL as final concentration (BAEE unit) with Hanks-20 mM Hepes buffer (pH 7.4) was added to a 384-well deep well polypropylene plate (Greiner) to be an agonist reagent plate. Thirty minutes before the measurement using FDSS6000 (Hamamatsu Photonics K.K.), a test compound prepared with Hanks-20 mM Hepes buffer (pH 7.4) was added to the cell so as to be 8 μL/well. The cell plate to which the test compound was added and the reagent plate were set on FDSS6000, 22 μL/well of the agonist solution was added from the reagent plate, and the change in intracellular calcium concentration was measured with a CCD camera. The measurement was carried out at 37° C. for 120 seconds and the addition of reagent from the reagent plate to the cell plate was carried out using a built-in 384-well automatic dispenser of FDSS6000.
Note that Reference Example 1 in Table 3 is the compound represented by formula (XIX) synthesized in the above Reference Example 1 (hereinafter, also referred to as Compound (XIX)). Additionally, the “Comparative Compound” in Table 3 is the compound described in Patent Literature 4 represented by the following formula (XX) (I-343; hereinafter, also referred to as Compound (XX)).

PAR2 [2] = target: T2, PAR2 (Mus musculus, UniProt P55086); test: Measurement of PAR2 agonist (SLIGRL-NH2)-induced salivation in mouse; format: in vivo; conditions: C57BL/6J male mice, 0.3 mg/mL solution 10 mL/kg orally, 60 min before SLIGRL-NH2 i.p., saliva collected 10 min
T2 construct: orally administered to C57BL/6J male mice (Charles River), 6-10 weeks of age; tissue Charles River; host or cells: Living C57BL/6J male mice (in vivo; saliva secretion)
T2 sequence (P55086 26-399): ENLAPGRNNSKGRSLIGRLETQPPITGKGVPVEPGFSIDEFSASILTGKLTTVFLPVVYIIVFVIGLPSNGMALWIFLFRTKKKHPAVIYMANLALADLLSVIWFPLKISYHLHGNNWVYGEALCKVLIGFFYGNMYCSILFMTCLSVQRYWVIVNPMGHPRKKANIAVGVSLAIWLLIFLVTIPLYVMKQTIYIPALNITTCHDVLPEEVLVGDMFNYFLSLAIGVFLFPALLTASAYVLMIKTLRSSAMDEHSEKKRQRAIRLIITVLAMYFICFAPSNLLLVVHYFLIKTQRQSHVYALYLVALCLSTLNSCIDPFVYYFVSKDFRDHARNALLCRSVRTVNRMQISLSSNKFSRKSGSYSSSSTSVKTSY
Description: The test compound was added to a 0.5% carboxymethyl cellulose solution to which 2% DMSO was added, so as to have the final concentration of 0.3 mg/mL, thereby preparing an administration solution containing the test compound. The administration solution containing the test compound (10 mL/kg) was orally administered to C57BL/6J male mice (Charles River), 6-10 weeks of age, using an oral sonde and a syringe. Forty-five minutes after the administration of the test compound, 10 mL/kg of a 20% (w/v) urethane solution was intraperitoneal administered to the mice which were then anesthetized. Sixty minutes after the administration of the test compound, 10 mL/kg of a 0.1 mg/mL SLIGRL-NH2 (SEQ ID NO: 2) solution was intraperitoneally administered as the PAR2 agonist and a cotton ball was immediately placed in the oral cavity of the mouse to collect the saliva. Ten minutes after the administration of the PAR2 agonist, the cotton ball was removed and weighed to measure the amount of saliva secreted.
Note that Reference Example 1 in Table 4 is Compound (XIX). Additionally, Comparative Compound in Table 4 is Compound (XX).

[3] = test system: OXA-induced enteritis in BALB/c male mice; test: Model mouse for enteritis (OXA-induced, bowel length); format: in vivo; conditions: po, 48 h, 0.1 mg/mL solution 10 mL/kg orally twice (1 hour before and day after OXA induction), length of colon and rectum two days after induction, read-out: Inhibitory activity on bowel shortening (%)
Description: Generally, the bowel length is known to be shorter during enteritis (Maxwell, J. R. et al. Curr. Protoc. Pharmacol. Chapter 5: Unit 5.58, 2009). The bowel length in an enteritis model was measured to evaluate the effect of the test compound.
The test compound was added to a 0.5% carboxymethyl cellulose solution so as to have a final concentration of 0.1 mg/mL, thereby preparing an administration solution containing the test compound. Hapten used was 4-ethoxymethylene-2-phenyloxazol-5-one (OXA, SIGMA-ALDRICH).
One hundred (100) μL of a solution of OXA diluted to 0.3% with ethanol was applied to the shaved abdominal region of BALB/c male mice (Charles River), 6-10 weeks of age, to create the sensitization. Five days after the sensitization, OXA was intrarectally administered to induce an enteritis reaction. More specifically, a syringe equipped with a sonde for oral administration was inserted into the anus of the mouse anesthetized by the inhalation of isoflurane at a concentration of 4-5% and 50 μL of the OXA solution adjusted to 1% with a solvent of 50% ethanol/50% distilled water was administered into the rectum.
One hour before and on the day following the induction of enteritis, the administration solution containing the test compound (10 mL/kg) was orally administered twice in total to the mice. Two days after the induction of enteritis, the mice were euthanized by cervical dislocation and subsequently the cecum to the anus was collected to measure the combined length of the colon and the rectum using a ruler, thereby evaluating the action of the test compound.
Note that Reference Example 1 in Table 6 is Compound (XIX).

[4] = test system: DNFB-induced dermatitis in BALB/c male mice; test: Mouse dermatitis model (DNFB-induced auricle swelling); format: in vivo; conditions: 0.3 mg/mL solution 10 mL/kg orally 8 hours after DNFB induction, auricle thickness on following day
Description: The test compound was added to a 0.5% carboxymethyl cellulose solution so as to have the final concentration of 0.3 mg/mL, thereby preparing an administration solution containing the test compound. Hapten used was 2,4-dinitrofluorobenzene (DNFB, Wako Pure Chemical Industries).
Twenty-five (25) μL of a solution of DNFB diluted to 0.4% with a mixed solvent of acetone and an olive oil in a volume ratio of 2:1 was applied twice to the shaved abdominal region of BALB/c male mice (Charles River), 6-10 weeks of age, over a period of 2 days to create the sensitization. Four days after the sensitization, on the first day, 20 μL of a solution of DNFB diluted to 0.2% with a mixed solvent of acetone and an olive oil in a volume ratio of 2:1 was applied to the right auricle of the mouse to induce dermatitis. Eight hours after the induction of dermatitis, the administration solution containing the test compound (10 mL/kg) was orally administered to the mouse. On the day following the induction of dermatitis, the right auricle thickness of the mouse was measured using a thickness gauge to evaluate the action of the test compound.
Note that Reference Example 1 in Table 5 is Compound (XIX).

Compound	IC50 (PAR2 [1]) [nM]	Inhibitory activity on the PAR2-dependent saliva secretion (%) (PAR2 [2])	inhibition in vivo at 100 µg/mL, 1 mg/kg [3] [%]	Inhibitory activity on auricle swelling (%) [4] [%]
CN(c1c(F)cccc1Cl)c1cc(-c2cc(F)c(F)c(F)c2)nc2cc(C(=O)N3CC[C@@H](CC(=O)O)[C@@H](F)C3)nn12 (relative stereo) [Example 13, 2-((3R*,4S*)-1-(7-((2-chloro-6-fluorophenyl)(methyl)amino)-5-(3,4,5-trifluorophenyl)pyrazolo[1,5-a]pyrimidine-2-carbonyl)-3-fluoropiperidin-4-yl)acetic acid]	4	95.0	62.2	
CC(C)CN(c1cc(-c2cc(F)c(F)c(F)c2)nc2cc(C(=O)N3C[C@@H]4[C@@H](CC(=O)O)[C@@H]4C3)nn12)[C@@H](C)c1ccccc1 [Example 16, 2-((1α,5α,6α)-3-(7-(isobutyl((S)-1-phenylethyl)amino)-5-(3,4,5-trifluorophenyl)pyrazolo[1,5-a]pyrimidine-2-carbonyl)-3-azabicyclo[3.1.0]hexan-6-yl)acetic acid]	26.3	98.2	74.5	
CCCN(c1cc(-c2cc(F)c(Cl)c(F)c2)nc2cc(C(=O)N3C[C@@H]4[C@@H](CC(=O)O)[C@@H]4C3)nn12)C(C)C [Example 15, 2-((1α,5α,6α)-3-(5-(4-chloro-3,5-difluorophenyl)-7-(isopropyl(propyl)amino)pyrazolo[1,5-a]pyrimidine-2-carbonyl)-3-azabicyclo[3.1.0]hexan-6-yl)acetic acid]	12.8			17.4
COc1cccc(C)c1N(C)c1cc(-c2cc(F)c(F)c(F)c2)nc2cc(C(=O)N3CC[C@@H](CC(=O)O)[C@@H](F)C3)nn12 (relative stereo) [Example 5, 2-((3R*,4S*)-3-fluoro-1-(7-((2-methoxy-6-methylphenyl)(methyl)amino)-5-(3,4,5-trifluorophenyl)pyrazolo[1,5-a]pyrimidine-2-carbonyl)piperidin-4-yl)acetic acid]	2.45	94.5	106	
COc1cccc(C)c1N(C)c1cc(-c2cc(F)c(F)c(F)c2)nc2cc(C(=O)N3CC[C@@H](CC(=O)O)[C@@H](OC)C3)nn12 (relative stereo) [Example 6, 2-((3R*,4S*)-3-methoxy-1-(7-((2-methoxy-6-methylphenyl)(methyl)amino)-5-(3,4,5-trifluorophenyl)pyrazolo[1,5-a]pyrimidine-2-carbonyl)piperidin-4-yl)acetic acid]	2.79	97.0	79.6	
CO[C@H]1CN(C(=O)c2cc3nc(-c4cc(F)c(F)c(F)c4)cc(N(C)c4c(C)cccc4C)n3n2)CC[C@H]1CC(=O)O (relative stereo) [Example 2, 2-((3R*,4S*)-1-(7-((2,6-dimethylphenyl)(methyl)amino)-5-(3,4,5-trifluorophenyl)pyrazolo[1,5-a]pyrimidine-2-carbonyl)-3-methoxypiperidin-4-yl)acetic acid]	7.54	91.3	69.7	
COc1cccc(F)c1N(C)c1cc(-c2cc(F)c(F)c(F)c2)nc2cc(C(=O)N(C)[C@H](C)CC(=O)O)nn12 [Example 7, (R)-3-(7-((2-fluoro-6-methoxyphenyl)(methyl)amino)-N-methyl-5-(3,4,5-trifluorophenyl)pyrazolo[1,5-a]pyrimidine-2-carboxamide)butanoic acid]	1.74	96.0		61.6
